Legend:
wild buckwheat [1] = test: Test D preemergence; assay type: in vivo, Polygonum convolvulus
From the text: (§1) Seeds of plant species selected from bluegrass (annual bluegrass, Poa annua), blackgrass (Alopecurus myosuroides), canarygrass (littleseed canarygrass, Phalaris minor), chickweed (common chickweed, Stellaria media), galium (catchweed bedstraw, Galium aparine), bromegrass, downy (downy bromegrass, Bromus tectorum), field poppy (Papaver rhoeas), field violet (Viola arvensis), green foxtail (Setaria viridis), deadnettle (henbit deadnettle, Lamium amplexicaule), Italian ryegrass (Lolium multiflorum), kochia (Kochia scoparia), lambsquarters (Chenopodium album), oilseed rape (Brassica napus), pigweed (Amaranthus retroflexus), chamomile (scentless chamomile, Matricaria inodora), Russian thistle (Salsola kali), speedwell (bird's-eye speedwell, Veronica persica), spring barley (Hordeum vulgare), spring wheat (Triticum aestivum), wild buckwheat (Polygonum convolvulus), wild mustard (Sinapis arvensis), wild oat (Avena fatua), wild radish (Raphanus raphanistrum), windgrass (Apera spica-venti), winter barley (Hordeum vulgare), and winter wheat (Triticum aestivum) were planted into a silt loam soil and treated preemergence with test chemicals formulated in a non-phytotoxic solvent mixture which included a surfactant.
(§2) At the same time, these species were planted in pots containing Redi-Earth® planting medium (Scotts Company, 14111 Scottslawn Road, Marysville, Ohio 43041) comprising spaghnum peat moss, vermiculite, wetting agent and starter nutrients and treated with postemergence applications of the test chemicals formulated in the same manner. Plants ranged in height from 2 to 18 cm (1- to 4-leaf stage). Treated plants and controls were maintained in a controlled growth environment for 7 to 21 days after which time all species were compared to controls and visually evaluated. Plant response ratings, summarized in Table D, are based on a scale of 0 to 100 where 0 is no effect and 100 is complete control. A dash (-) response means no test result.

bluegrass = test: Test D postemergence; assay type: in vivo, Poa annua
From the text: as §1, §2

canarygrass = test: Test D postemergence; assay type: in vivo, Phalaris minor
From the text: as §1, §2

bromegrass, downy = test: Test D postemergence; assay type: in vivo, Bromus tectorum
From the text: as §1, §2

speedwell = test: Test D postemergence; assay type: in vivo, Veronica persica
From the text: as §1, §2

spring barley = test: Test D postemergence; assay type: in vivo, Hordeum vulgare
From the text: as §1, §2

winter barley = test: Test D postemergence; assay type: in vivo, Hordeum vulgare
From the text: as §1, §2

wild buckwheat [2] = test: Test D postemergence; assay type: in vivo, Polygonum convolvulus
From the text: as §1, §2

wild radish = test: Test D postemergence; assay type: in vivo, Raphanus raphanistrum
From the text: as §1, §2

[3] = Postemergence, 62 g ai/ha, scale 0 to 100 (0 no effect, 100 complete control)
[4] = Postemergence, 31 g ai/ha, scale 0 to 100 (0 no effect, 100 complete control)
[5] = Postemergence, 125 g ai/ha, scale 0 to 100 (0 no effect, 100 complete control)
[6] = Postemergence, 250 g ai/ha, scale 0 to 100 (0 no effect, 100 complete control)
[7] = postemergence, 16 g ai/ha, scale 0 to 100, 0 no effect, 100 complete control
[8] = 31 g ai/ha, scale 0 to 100 (0 no effect, 100 complete control)
[9] = 62 g ai/ha, scale 0 to 100 (0 no effect, 100 complete control)
[10] = 125 g ai/ha, scale 0 to 100 (0 no effect, 100 complete control)
[11] = 250 g ai/ha, scale 0 to 100 (0 no effect, 100 complete control)

Clc1cnc(Oc2ccccc2-n2cc(Cl)cn2)nc1 [Compound 3]
Plant response rating, Buckwheat, Wild (wild buckwheat [1]; 16 g ai/ha, scale 0 (no effect) to 100 (complete control)): 0
Plant response rating, Buckwheat, Wild (wild buckwheat [1]; 31 g ai/ha, scale 0-100): 0
Plant response rating, Buckwheat, Wild (wild buckwheat [1]; 62 g ai/ha, scale 0-100): 0
Plant response rating, Buckwheat, Wild (wild buckwheat [1]; 125 g ai/ha, scale 0-100): 60
Plant response rating, Buckwheat, Wild (wild buckwheat [1]; 250 g ai/ha, scale 0-100): 100
Plant response rating, Bluegrass (bluegrass; [3]): 0
Plant response rating, Bluegrass (bluegrass; [4]): 0
Plant response rating, Bluegrass (bluegrass; [5]): 0
Plant response rating, Bluegrass (bluegrass; [6]): 10
Plant response rating, Bluegrass (bluegrass; [7]): 40
Plant response rating, Canarygrass (canarygrass; 16 g ai/ha, scale 0-100): 30
Plant response rating, Canarygrass (canarygrass; [8]): 0
Plant response rating, Canarygrass (canarygrass; [9]): 0
Plant response rating, Canarygrass (canarygrass; [10]): 0
Plant response rating, Canarygrass (canarygrass; [11]): 10
Plant response rating, Bromegrass, Downy (bromegrass, downy; [3]): 0
Plant response rating, Bromegrass, Downy (bromegrass, downy; [4]): 0
Plant response rating, Bromegrass, Downy (bromegrass, downy; [5]): 0
Plant response rating, Bromegrass, Downy (bromegrass, downy; [6]): 0
Plant response rating, Bromegrass, Downy (bromegrass, downy; [7]): 50
Plant response rating, Speedwell (speedwell; 16 g ai/ha, scale 0-100): 60
Plant response rating, Speedwell (speedwell; [8]): 30
Plant response rating, Speedwell (speedwell; [9]): 45
Plant response rating, Speedwell (speedwell; [10]): 60
Plant response rating, Speedwell (speedwell; [11]): 75
Plant response rating, Barley, Spring (spring barley; [3]): 0
Plant response rating, Barley, Spring (spring barley; [4]): 0
Plant response rating, Barley, Spring (spring barley; [5]): 0
Plant response rating, Barley, Spring (spring barley; [6]): 10
Plant response rating, Barley, Spring (spring barley; [7]): 50
Plant response rating, Barley, Winter (winter barley; [3]): 0
Plant response rating, Barley, Winter (winter barley; [4]): 0
Plant response rating, Barley, Winter (winter barley; [5]): 0
Plant response rating, Barley, Winter (winter barley; [6]): 0
Plant response rating, Barley, Winter (winter barley; [7]): 50
Plant response rating, Buckwheat, Wild (wild buckwheat [2]; [3]): 50
Plant response rating, Buckwheat, Wild (wild buckwheat [2]; [4]): 10
Plant response rating, Buckwheat, Wild (wild buckwheat [2]; [5]): 60
Plant response rating, Buckwheat, Wild (wild buckwheat [2]; [6]): 80
Plant response rating, Buckwheat, Wild (wild buckwheat [2]; [7]): 50
Plant response rating, Radish, Wild (wild radish; 16 g ai/ha, scale 0-100): 70
Plant response rating, Radish, Wild (wild radish; [8]): 30
Plant response rating, Radish, Wild (wild radish; [9]): 40
Plant response rating, Radish, Wild (wild radish; [10]): 50
Plant response rating, Radish, Wild (wild radish; [11]): 75

FC(F)(F)COc1cnn(-c2ccccc2Oc2ncc(Cl)cn2)c1 [Compound 138, 5-chloro-2-[2-[4-(2,2,2-trifluoroethoxy)-1H-pyrazol-1-yl]phenoxy]pyrimidine]
pest or weed control at 16 g/ha (wild buckwheat [1]; Fallopia convolvulus, pre-emergence, 16 g ai/ha, scale 0 (no effect) to 100 (complete control), read-out: Plant response rating, Buckwheat, Wild): 60%
pest or weed control at 31 g/ha (wild buckwheat [1]; Fallopia convolvulus, pre-emergence, 31 g ai/ha, scale 0-100, read-out: Plant response rating, Buckwheat, Wild): 35%
pest or weed control at 62 g/ha (wild buckwheat [1]; Fallopia convolvulus, pre-emergence, 62 g ai/ha, scale 0-100, read-out: Plant response rating, Buckwheat, Wild): 55%
pest or weed control at 125 g/ha (wild buckwheat [1]; Fallopia convolvulus, pre-emergence, 125 g ai/ha, scale 0-100, read-out: Plant response rating, Buckwheat, Wild): 75%
pest or weed control at 16 g/ha (bluegrass; Poa annua, post-emergence, Postemergence, 16 g ai/ha, scale 0 to 100 (0 no effect, 100 complete control), read-out: Plant response rating, Bluegrass): 0%
pest or weed control at 31 g/ha (bluegrass; Poa annua, post-emergence, Postemergence, 31 g ai/ha, scale 0 to 100 (0 no effect, 100 complete control), read-out: Plant response rating, Bluegrass): 5%
pest or weed control at 62 g/ha (bluegrass; Poa annua, post-emergence, Postemergence, 62 g ai/ha, scale 0 to 100 (0 no effect, 100 complete control), read-out: Plant response rating, Bluegrass): 5%
pest or weed control at 125 g/ha (bluegrass; Poa annua, post-emergence, Postemergence, 125 g ai/ha, scale 0 to 100 (0 no effect, 100 complete control), read-out: Plant response rating, Bluegrass): 10%
pest or weed control at 16 g/ha (canarygrass; Phalaris minor, post-emergence, 16 g ai/ha, scale 0-100, read-out: Plant response rating, Canarygrass): 5%
pest or weed control at 31 g/ha (canarygrass; Phalaris minor, post-emergence, 31 g ai/ha, scale 0 to 100 (0 no effect, 100 complete control), read-out: Plant response rating, Canarygrass): 10%
pest or weed control at 62 g/ha (canarygrass; Phalaris minor, post-emergence, 62 g ai/ha, scale 0 to 100 (0 no effect, 100 complete control), read-out: Plant response rating, Canarygrass): 10%
pest or weed control at 125 g/ha (canarygrass; Phalaris minor, post-emergence, 125 g ai/ha, scale 0 to 100 (0 no effect, 100 complete control), read-out: Plant response rating, Canarygrass): 15%
pest or weed control at 16 g/ha (bromegrass, downy; Bromus tectorum, post-emergence, Postemergence, 16 g ai/ha, scale 0 to 100 (0 no effect, 100 complete control), read-out: Plant response rating, Bromegrass, Downy): 0%
pest or weed control at 31 g/ha (bromegrass, downy; Bromus tectorum, post-emergence, Postemergence, 31 g ai/ha, scale 0 to 100 (0 no effect, 100 complete control), read-out: Plant response rating, Bromegrass, Downy): 0%
pest or weed control at 62 g/ha (bromegrass, downy; Bromus tectorum, post-emergence, Postemergence, 62 g ai/ha, scale 0 to 100 (0 no effect, 100 complete control), read-out: Plant response rating, Bromegrass, Downy): 5%
pest or weed control at 125 g/ha (bromegrass, downy; Bromus tectorum, post-emergence, Postemergence, 125 g ai/ha, scale 0 to 100 (0 no effect, 100 complete control), read-out: Plant response rating, Bromegrass, Downy): 5%
pest or weed control at 16 g/ha (speedwell; Veronica persica, post-emergence, 16 g ai/ha, scale 0-100, read-out: Plant response rating, Speedwell): 70%
pest or weed control at 31 g/ha (speedwell; Veronica persica, post-emergence, 31 g ai/ha, scale 0 to 100 (0 no effect, 100 complete control), read-out: Plant response rating, Speedwell): 70%
pest or weed control at 62 g/ha (speedwell; Veronica persica, post-emergence, 62 g ai/ha, scale 0 to 100 (0 no effect, 100 complete control), read-out: Plant response rating, Speedwell): 75%
pest or weed control at 125 g/ha (speedwell; Veronica persica, post-emergence, 125 g ai/ha, scale 0 to 100 (0 no effect, 100 complete control), read-out: Plant response rating, Speedwell): 75%
plant injury at 16 g/ha (spring barley; Hordeum vulgare, post-emergence, Postemergence, 16 g ai/ha, scale 0 to 100 (0 no effect, 100 complete control), read-out: Plant response rating, Barley, Spring): 10%
plant injury at 31 g/ha (spring barley; Hordeum vulgare, post-emergence, Postemergence, 31 g ai/ha, scale 0 to 100 (0 no effect, 100 complete control), read-out: Plant response rating, Barley, Spring): 10%
plant injury at 62 g/ha (spring barley; Hordeum vulgare, post-emergence, Postemergence, 62 g ai/ha, scale 0 to 100 (0 no effect, 100 complete control), read-out: Plant response rating, Barley, Spring): 10%
plant injury at 125 g/ha (spring barley; Hordeum vulgare, post-emergence, Postemergence, 125 g ai/ha, scale 0 to 100 (0 no effect, 100 complete control), read-out: Plant response rating, Barley, Spring): 15%
plant injury at 16 g/ha (winter barley; Hordeum vulgare, post-emergence, Postemergence, 16 g ai/ha, scale 0 to 100 (0 no effect, 100 complete control), read-out: Plant response rating, Barley, Winter): 5%
plant injury at 31 g/ha (winter barley; Hordeum vulgare, post-emergence, Postemergence, 31 g ai/ha, scale 0 to 100 (0 no effect, 100 complete control), read-out: Plant response rating, Barley, Winter): 5%
plant injury at 62 g/ha (winter barley; Hordeum vulgare, post-emergence, Postemergence, 62 g ai/ha, scale 0 to 100 (0 no effect, 100 complete control), read-out: Plant response rating, Barley, Winter): 5%
plant injury at 125 g/ha (winter barley; Hordeum vulgare, post-emergence, Postemergence, 125 g ai/ha, scale 0 to 100 (0 no effect, 100 complete control), read-out: Plant response rating, Barley, Winter): 10%
pest or weed control at 16 g/ha (wild buckwheat [2]; Fallopia convolvulus, post-emergence, Postemergence, 16 g ai/ha, scale 0 to 100 (0 no effect, 100 complete control), read-out: Plant response rating, Buckwheat, Wild): 65%
pest or weed control at 31 g/ha (wild buckwheat [2]; Fallopia convolvulus, post-emergence, Postemergence, 31 g ai/ha, scale 0 to 100 (0 no effect, 100 complete control), read-out: Plant response rating, Buckwheat, Wild): 70%
pest or weed control at 62 g/ha (wild buckwheat [2]; Fallopia convolvulus, post-emergence, Postemergence, 62 g ai/ha, scale 0 to 100 (0 no effect, 100 complete control), read-out: Plant response rating, Buckwheat, Wild): 65%
pest or weed control at 125 g/ha (wild buckwheat [2]; Fallopia convolvulus, post-emergence, Postemergence, 125 g ai/ha, scale 0 to 100 (0 no effect, 100 complete control), read-out: Plant response rating, Buckwheat, Wild): 80%
pest or weed control at 16 g/ha (wild radish; Raphanus raphanistrum, post-emergence, 16 g ai/ha, scale 0-100, read-out: Plant response rating, Radish, Wild): 60%
pest or weed control at 31 g/ha (wild radish; Raphanus raphanistrum, post-emergence, 31 g ai/ha, scale 0 to 100 (0 no effect, 100 complete control), read-out: Plant response rating, Radish, Wild): 65%
pest or weed control at 62 g/ha (wild radish; Raphanus raphanistrum, post-emergence, 62 g ai/ha, scale 0 to 100 (0 no effect, 100 complete control), read-out: Plant response rating, Radish, Wild): 80%
pest or weed control at 125 g/ha (wild radish; Raphanus raphanistrum, post-emergence, 125 g ai/ha, scale 0 to 100 (0 no effect, 100 complete control), read-out: Plant response rating, Radish, Wild): 90%

From patent publication US9695155B2, “Herbicidal substituted pyrimidinyloxy benzene compounds” (E. I. DU PONT DE NEMOURS AND COMPANY, priority 2013, dated 2017)
